# Test results from the supplement of paper PMC10307832.
# Key:
# Assay in all cases: relative viability (nuclei count vs DMSO), 5 days (fraction); higher = more cells survive
# IPA-3 + OSI-027 = compound: C1=CC=C2C(=C1)C=CC(=C2SSC3=C(C=CC4=CC=CC=C43)O)O [IPA-3] + COc1cccc2cc(-c3nc([C@H]4CC[C@H](C(=O)O)CC4)n4ncnc(N)c34)[nH]c12 [OSI-027] (partner 0.5 µM)
# Procedure, shortened: (§1)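 Relative viability was taken as the ratio of nuclei in treated wells to nuclei in vehicle wells. Lung cancer cell lines in 1536-well plates received compounds by pin tool one day after seeding, either one drug alone or a fixed anchor-drug dose plus five library-drug doses (not always all listed) in √10 steps. Nuclei were counted on 4× images after 5 days of treatment, and values are medians of duplicate plates.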
# IPA-3 + Phenformin = compound: C1=CC=C2C(=C1)C=CC(=C2SSC3=C(C=CC4=CC=CC=C43)O)O [IPA-3] + N=C(N)NC(=N)NCCc1ccccc1 [Phenformin] (partner 250 µM)
# Procedure, shortened: as §1
# Doramapimod + Bortezomib = compound: Cc1ccc(-n2nc(C(C)(C)C)cc2NC(=O)Nc2ccc(OCCN3CCOCC3)c3ccccc23)cc1 [Doramapimod] + CC(C)C[C@H](NC(=O)[C@H](Cc1ccccc1)NC(=O)c1cnccn1)B(O)O [Bortezomib] (partner 0.002 µM)
# Procedure, shortened: as §1
# RAF265 + Bortezomib = compound: Cn1c(Nc2ccc(C(F)(F)F)cc2)nc2cc(Oc3ccnc(-c4ncc(C(F)(F)F)[nH]4)c3)ccc21 [RAF265] + CC(C)C[C@H](NC(=O)[C@H](Cc1ccccc1)NC(=O)c1cnccn1)B(O)O [Bortezomib] (partner 0.002 µM)
# Procedure, shortened: as §1
Cell Line,relative viability (IPA-3 + OSI-027; first compound 0.2 µM),relative viability (IPA-3 + OSI-027; first compound 0.6325 µM),relative viability (IPA-3 + OSI-027; first compound 2 µM),relative viability (IPA-3 + OSI-027; first compound 6.325 µM),relative viability (IPA-3 + OSI-027; first compound 20 µM),relative viability (IPA-3 + Phenformin; first compound 0.2 µM),relative viability (IPA-3 + Phenformin; first compound 0.6325 µM),relative viability (IPA-3 + Phenformin; first compound 2 µM),relative viability (IPA-3 + Phenformin; first compound 6.325 µM),relative viability (IPA-3 + Phenformin; first compound 20 µM),relative viability (Doramapimod + Bortezomib; first compound 0.02 µM),relative viability (Doramapimod + Bortezomib; first compound 0.06325 µM),relative viability (Doramapimod + Bortezomib; first compound 0.2 µM),relative viability (Doramapimod + Bortezomib; first compound 0.6325 µM),relative viability (Doramapimod + Bortezomib; first compound 2 µM),relative viability (RAF265 + Bortezomib; first compound 0.01 µM),relative viability (RAF265 + Bortezomib; first compound 0.1 µM),relative viability (RAF265 + Bortezomib; first compound 0.3162 µM),relative viability (RAF265 + Bortezomib; first compound 1 µM),relative viability (RAF265 + Bortezomib; first compound 0.03162 µM)
HOP-62,0.985,0.808,0.937,0.783,0.616,0.79,0.582,0.679,0.636,0.645,0.594,0.97,1.15,0.468,0.703,1.15,1.05,0.674,0.788,–
LC-2-ad,0.937,0.878,0.858,0.871,1.02,0.605,0.566,0.556,0.595,0.666,0.985,1.12,1.06,1.14,0.94,0.959,0.927,0.668,0.452,0.998
LCLC-97TM1,0.403,0.521,0.436,0.498,0.502,0.449,0.447,0.407,0.315,0.46,0.587,1.27,0.905,0.378,0.521,0.253,0.492,0.181,0.238,0.671
LCLC-103H,0.442,0.444,0.463,0.486,0.505,0.299,0.344,0.365,0.354,0.372,1.19,0.986,1.04,1.2,1.03,1.02,0.994,1,0.627,1.07
LOU-NH91,0.709,0.732,0.811,0.73,0.776,0.793,0.666,0.721,0.677,0.954,0.47,0.506,0.532,0.444,0.672,0.542,0.521,0.596,0.521,0.465
LU99A,0.273,0.323,0.286,0.323,0.315,0.883,0.764,0.858,0.933,0.799,1.03,1.15,1.12,1.15,0.922,1.18,0.697,0.605,0.409,1.11
LXF-289,0.909,0.722,0.696,0.847,0.911,0.536,0.47,0.544,0.514,0.546,1.01,1.02,1.03,1.02,0.907,0.996,0.969,0.763,0.796,0.988
NCI-H23,0.591,0.544,0.577,0.571,0.533,0.819,0.781,0.855,0.773,0.734,1.01,1.07,1.06,1.11,1.04,1.21,0.606,0.621,0.353,0.937
NCI-H322M,0.597,0.521,0.569,0.597,0.61,0.821,0.749,0.835,0.89,0.96,1.26,1.43,1.18,1.26,1.35,1.3,1.14,0.55,0.258,1.32
NCI-H441,0.819,0.613,0.527,0.54,0.426,1,0.715,0.838,0.742,0.513,0.308,–,0.522,0.362,0.266,0.446,0.499,0.362,0.207,–
NCI-H460,1.2,0.615,0.658,0.671,0.78,0.835,0.501,0.495,0.448,0.446,0.961,1.12,1.11,1.24,1.05,1.15,1.09,–,0.742,1.22
NCI-H520,0.303,0.255,0.282,0.284,0.204,0.817,0.63,0.369,0.512,0.712,0.671,0.699,0.529,0.677,0.364,0.389,0.545,0.486,0.202,0.547
NCI-H596,0.761,0.681,0.757,0.668,0.865,0.906,0.829,0.668,0.817,0.787,0.994,1.13,1.21,1.24,1.02,1.18,1.08,0.85,0.743,0.987
NCI-H647,1.04,0.576,0.629,0.676,0.301,0.8,0.482,0.48,0.371,0.107,1.13,0.985,0.912,1.05,0.861,0.949,0.686,0.58,0.426,0.806
NCI-H650,0.561,0.534,0.521,0.521,0.566,0.492,0.511,0.457,0.463,0.451,0.882,1.11,1.03,0.737,0.874,0.836,0.793,0.539,0.32,0.781
